The subject of data set [1] is MCF7. Put plainly: Antiproliferative activity against human MCF7 cells. The data set is classed as functional, cell-based.
In data set [2] the target is T1, Vascular endothelial growth factor receptor 2 (Homo sapiens, UniProt P35968).
Data set [3] concerns HepG2. The data set can be described thus: Antiproliferative activity against human HepG2 cells. Type of data set: functional, cell-based.
Data set [4] has as its target Epidermal growth factor receptor (Homo sapiens, UniProt P00533). Put plainly: Inhibition of wild-type EGFR (unknown origin).
Data set [5] has as its system WI-38. The data set can be described thus: Antiproliferative activity against human WI-38 cells. Type of data set: functional, cell-based.
In data set [6] the target is Epidermal growth factor receptor (Homo sapiens, UniProt P00533, L858R). Put plainly: Inhibition of EGFR L858R mutant (unknown origin).
Data set [7] has as its system HCT-116. The data set can be described thus: Antiproliferative activity against human HCT-116 cells. The data set is classed as functional, cell-based.
A short description of data set [8]: Antioxidant activity assessed as NO radical scavenging activity. Type of data set: functional.
Data set [9] can be described thus: Antioxidant activity assessed as DPPH radical scavenging activity. Type of data set: functional. (DPPH is a stable violet radical that fades when it is reduced.)
Data set [10] in a line: Antioxidant activity assessed as H2O2 radical scavenging activity. The data set is classed as functional.
Data set [11] deals with Mesenteric vein. The data set can be described thus: Vasorelaxant activity in dog mesenteric veins. The settings on record: Canis lupus familiaris. Type of data set: functional, tissue-based.
The target in data set [12] is 3',5'-cyclic phosphodiesterase. Put plainly: Inhibition of cAMP-specific 3',5'-cyclic phosphodiesterase (unknown origin). The data set is classed as protein assay, Homo sapiens.
The test system of data set [13] is Coronary artery. The data set can be described thus: Vasorelaxant activity in dog coronary arteries. Type of data set: functional, tissue-based. The settings on record: Canis lupus familiaris.
Data set [14] is described as follows: Inhibition of cGMP-dependent 3',5'-cyclic phosphodiesterase (unknown origin). Details: species or system Homo sapiens.
The subject of data set [15] is Papillary muscle. The data set can be described thus: Positive inotropic activity in ferret papillary muscle assessed as contractile force measured as CFC20. Type of data set: functional, Mustela putorius furo.
For data set [16], the system named is Escherichia coli. Put plainly: Antibacterial activity against Escherichia coli W3110. The data set is classed as functional.
Data set [17] concerns Pseudomonas aeruginosa. Put plainly: Antibacterial activity against Pseudomonas aeruginosa. Type of data set: functional.
A short description of data set [18]: Inhibition of Escherichia coli topoisomerase 4.
In data set [19] the test system is Staphylococcus aureus. The data set can be described thus: Antibacterial activity against Staphylococcus aureus. The data set is classed as functional.
Data set [20] concerns Streptococcus pneumoniae. Put plainly: Antibacterial activity against Streptococcus pneumoniae. Type of data set: functional.
The target of data set [21] is Glutamate receptor ionotropic AMPA (Homo sapiens, UniProt P42261+P42262+P42263+P48058). Put plainly: Displacement of [3H]AMPA from AMPA receptor (unknown origin). Type of data set: protein-complex assay. On the technique in general: In a radioligand displacement assay an active substance lowers the binding of a labelled ligand.
Data set [22] in a line: Displacement of [3H]glycine from AMPA receptor (unknown origin). The data set is classed as protein-complex assay, Homo sapiens.
Data set [23] addresses Glutamate [NMDA] receptor. Put plainly: Displacement of [3H]MK-801 from NMDA receptor (unknown origin). Type of data set: protein-complex assay, Homo sapiens.
For data set [24], the system named is Enterococcus faecalis. Put plainly: Antibacterial activity against Enterococcus faecalis. The data set is classed as functional.
For data set [25], the system named is Aspergillus fumigatus. The data set can be described thus: Antifungal activity against Aspergillus fumigatus. The data set is classed as functional.
Data set [26] has as its system Klebsiella pneumoniae. The data set can be described thus: Antibacterial activity against Klebsiella pneumoniae. Type of data set: functional.
Data set [27] concerns Escherichia coli. Put plainly: Antibacterial activity against Escherichia coli. Type of data set: functional.
In data set [28] the test system is Candida albicans. Put plainly: Antifungal activity against Candida albicans. The data set is classed as functional.
The subject of data set [29] is Mycobacterium tuberculosis. Put plainly: Antimycobacterial activity against Mycobacterium tuberculosis H37Rv. Type of data set: functional.
A short description of data set [30]: Dissociation constant, pKa of the compound. Type of data set: physicochemical.
Data set [31] concerns PC-3. Put plainly: Antiproliferative activity against human PC-3 cells. The data set is classed as functional, cell-based.
The nature of data set [32]: Antiproliferative activity against human 3AO cells. Type of data set: functional, cell-based.
Data set [33] concerns BEAS-2B. Put plainly: Antiproliferative activity against human BEAS-2B cells. Type of data set: functional, cell-based.
Data set [34] deals with HeLa. The data set can be described thus: Antiproliferative activity against human HeLa cells. The data set is classed as functional, cell-based.
Data set [35] has as its target T1, Vascular endothelial growth factor receptor 2. Put plainly: Inhibition of VEGFR2 (unknown origin) at 1 uM relative to control.
For data set [36], the system named is K562. Put plainly: Antiproliferative activity against human K562 cells. Type of data set: functional, cell-based.
Data set [37] concerns MRC5. Put plainly: Antiproliferative activity against human MRC5 cells. The data set is classed as functional, cell-based.
Data set [38] has as its system LS174T. The data set can be described thus: Antiproliferative activity against human LS174T cells. Type of data set: functional, cell-based.
For data set [39], the system named is A549. Put plainly: Antiproliferative activity against human A549 cells. The data set is classed as functional, cell-based.
Data set [40] has as its system Pyricularia grisea. The data set can be described thus: Antifungal activity against Magnaporthe grisea GD08-T19 assessed as diameter zone of inhibition. The data set is classed as functional.
The test system of data set [41] is Pyricularia grisea. Put plainly: Antifungal activity against Magnaporthe grisea GD08-T19 at 50 ug/ml. The settings on record: dose 50 µg/ml. Type of data set: functional.

In brackets after ≈: the same amount, converted by molar mass. Some results are limits rather than exact numbers.

T1 sequence (P35968 whole entry): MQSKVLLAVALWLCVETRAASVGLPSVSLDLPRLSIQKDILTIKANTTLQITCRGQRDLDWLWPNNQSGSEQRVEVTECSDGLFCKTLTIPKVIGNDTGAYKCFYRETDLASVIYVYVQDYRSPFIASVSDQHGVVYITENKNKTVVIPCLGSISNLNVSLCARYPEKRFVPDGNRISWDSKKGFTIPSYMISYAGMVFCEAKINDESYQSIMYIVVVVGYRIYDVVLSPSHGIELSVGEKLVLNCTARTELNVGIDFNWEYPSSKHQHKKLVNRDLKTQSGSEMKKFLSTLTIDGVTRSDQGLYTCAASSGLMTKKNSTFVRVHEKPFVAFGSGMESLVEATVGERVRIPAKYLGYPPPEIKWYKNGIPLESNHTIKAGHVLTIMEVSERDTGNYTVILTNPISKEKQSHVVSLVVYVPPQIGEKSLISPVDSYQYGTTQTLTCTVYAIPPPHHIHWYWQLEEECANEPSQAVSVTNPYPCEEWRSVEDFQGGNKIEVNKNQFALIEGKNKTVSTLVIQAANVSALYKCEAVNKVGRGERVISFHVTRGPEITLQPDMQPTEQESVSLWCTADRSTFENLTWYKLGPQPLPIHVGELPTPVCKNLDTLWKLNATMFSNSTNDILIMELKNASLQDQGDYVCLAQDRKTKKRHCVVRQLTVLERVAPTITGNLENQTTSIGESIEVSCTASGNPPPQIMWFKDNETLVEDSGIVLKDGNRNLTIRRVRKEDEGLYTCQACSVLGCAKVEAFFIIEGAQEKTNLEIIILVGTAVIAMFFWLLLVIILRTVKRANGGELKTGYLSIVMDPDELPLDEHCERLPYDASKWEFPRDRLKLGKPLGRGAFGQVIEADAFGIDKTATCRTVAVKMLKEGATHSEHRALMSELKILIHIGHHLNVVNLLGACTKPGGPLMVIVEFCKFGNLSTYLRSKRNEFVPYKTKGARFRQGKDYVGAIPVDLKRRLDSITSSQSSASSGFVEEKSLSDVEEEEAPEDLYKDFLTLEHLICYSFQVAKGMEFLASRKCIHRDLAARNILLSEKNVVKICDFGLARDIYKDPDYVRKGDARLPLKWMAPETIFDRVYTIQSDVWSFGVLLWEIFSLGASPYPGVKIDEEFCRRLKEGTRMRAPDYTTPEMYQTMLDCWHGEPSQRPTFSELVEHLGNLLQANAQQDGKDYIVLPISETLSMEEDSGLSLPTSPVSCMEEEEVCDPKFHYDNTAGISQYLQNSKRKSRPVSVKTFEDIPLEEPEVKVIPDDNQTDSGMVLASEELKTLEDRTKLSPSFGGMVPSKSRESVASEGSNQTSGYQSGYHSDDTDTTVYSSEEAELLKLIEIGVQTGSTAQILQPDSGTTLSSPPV
Chain of Epidermal growth factor receptor (Homo sapiens, UniProt P00533) (P00533 whole entry): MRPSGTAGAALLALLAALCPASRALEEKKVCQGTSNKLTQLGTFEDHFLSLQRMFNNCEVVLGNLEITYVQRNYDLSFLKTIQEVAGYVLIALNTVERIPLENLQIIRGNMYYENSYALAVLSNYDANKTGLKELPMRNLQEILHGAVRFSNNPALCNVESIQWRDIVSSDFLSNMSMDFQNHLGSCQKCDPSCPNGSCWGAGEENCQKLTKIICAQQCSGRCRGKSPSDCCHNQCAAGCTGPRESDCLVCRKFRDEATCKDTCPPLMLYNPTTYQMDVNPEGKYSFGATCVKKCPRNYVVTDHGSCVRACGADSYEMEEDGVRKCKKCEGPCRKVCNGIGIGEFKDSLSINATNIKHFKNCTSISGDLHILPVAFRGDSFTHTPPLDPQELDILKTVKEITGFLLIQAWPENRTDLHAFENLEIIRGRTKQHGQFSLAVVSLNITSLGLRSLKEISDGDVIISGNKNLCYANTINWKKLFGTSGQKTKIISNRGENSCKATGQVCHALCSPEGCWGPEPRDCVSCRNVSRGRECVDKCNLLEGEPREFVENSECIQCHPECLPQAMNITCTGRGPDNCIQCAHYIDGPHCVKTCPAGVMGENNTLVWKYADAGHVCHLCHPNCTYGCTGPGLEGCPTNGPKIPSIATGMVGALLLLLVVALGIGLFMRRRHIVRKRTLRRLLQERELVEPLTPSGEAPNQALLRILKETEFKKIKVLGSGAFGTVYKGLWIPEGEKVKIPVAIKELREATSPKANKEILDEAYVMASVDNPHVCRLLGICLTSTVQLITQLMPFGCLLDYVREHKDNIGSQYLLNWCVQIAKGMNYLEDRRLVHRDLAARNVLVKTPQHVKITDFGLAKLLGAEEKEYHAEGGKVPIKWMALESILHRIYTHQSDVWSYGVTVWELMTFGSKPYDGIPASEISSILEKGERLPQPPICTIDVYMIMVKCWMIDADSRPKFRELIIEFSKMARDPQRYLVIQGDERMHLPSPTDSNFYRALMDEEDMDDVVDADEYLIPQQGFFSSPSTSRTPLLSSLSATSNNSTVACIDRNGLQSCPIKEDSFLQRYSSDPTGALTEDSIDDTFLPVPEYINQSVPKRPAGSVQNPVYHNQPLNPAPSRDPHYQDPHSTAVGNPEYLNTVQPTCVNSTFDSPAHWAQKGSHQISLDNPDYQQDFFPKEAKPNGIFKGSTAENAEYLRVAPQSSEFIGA
Chain of Epidermal growth factor receptor (Homo sapiens, UniProt P00533, L858R) (P00533 25-1210 L858R limits assumed): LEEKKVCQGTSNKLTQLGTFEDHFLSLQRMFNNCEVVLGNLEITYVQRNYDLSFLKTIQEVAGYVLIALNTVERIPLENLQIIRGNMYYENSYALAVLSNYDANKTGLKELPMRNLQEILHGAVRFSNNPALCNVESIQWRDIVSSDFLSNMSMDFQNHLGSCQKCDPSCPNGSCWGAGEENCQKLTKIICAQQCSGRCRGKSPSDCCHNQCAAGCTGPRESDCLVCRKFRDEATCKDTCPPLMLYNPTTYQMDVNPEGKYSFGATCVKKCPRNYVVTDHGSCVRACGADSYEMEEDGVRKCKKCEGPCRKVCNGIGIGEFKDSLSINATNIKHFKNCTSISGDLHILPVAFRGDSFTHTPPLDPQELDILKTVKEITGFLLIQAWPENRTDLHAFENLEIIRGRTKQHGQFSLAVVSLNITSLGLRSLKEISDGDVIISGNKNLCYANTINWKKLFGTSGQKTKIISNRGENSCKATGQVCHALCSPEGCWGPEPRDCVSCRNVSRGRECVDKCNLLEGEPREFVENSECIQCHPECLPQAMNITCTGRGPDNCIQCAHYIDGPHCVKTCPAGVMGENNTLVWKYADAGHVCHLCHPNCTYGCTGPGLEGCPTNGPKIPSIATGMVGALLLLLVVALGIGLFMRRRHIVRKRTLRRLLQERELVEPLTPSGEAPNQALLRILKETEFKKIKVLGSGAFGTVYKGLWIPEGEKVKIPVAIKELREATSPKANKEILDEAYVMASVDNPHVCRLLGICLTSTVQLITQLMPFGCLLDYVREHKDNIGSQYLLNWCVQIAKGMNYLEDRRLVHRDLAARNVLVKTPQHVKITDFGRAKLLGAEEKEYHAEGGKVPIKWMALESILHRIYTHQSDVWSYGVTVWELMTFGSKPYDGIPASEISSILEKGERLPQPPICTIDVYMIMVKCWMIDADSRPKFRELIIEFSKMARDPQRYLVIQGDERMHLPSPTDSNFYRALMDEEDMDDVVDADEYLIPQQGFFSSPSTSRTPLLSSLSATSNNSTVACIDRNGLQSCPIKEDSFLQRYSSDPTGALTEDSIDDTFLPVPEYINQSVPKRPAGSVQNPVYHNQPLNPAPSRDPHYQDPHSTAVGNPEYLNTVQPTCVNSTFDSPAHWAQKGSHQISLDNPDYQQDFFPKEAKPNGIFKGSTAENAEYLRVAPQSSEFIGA

For orientation: IC50 means the midpoint of a concentration-inhibition curve. Take `O=C(Cn1c(=O)c2nncn2c2ccccc21)Nc1ccc(C(=O)Nc2cc(Cl)ccc2Cl)cc1`: the IC50 in data set [1] came to 10.3 µM; in data set [2] it was 0.0048 µM; in data set [3], 8.4 µM.
On to `NNC(=O)/C=C1/Nc2ccc(Br)cc2NC1=O`, for which the concentration for half-maximal inhibition (IC50) worked out at 16.9 µM in data set [1]; 1.55 µM in data set [4]; 227 µM in [5]; 18.6 µM in data set [3]; 0.0873 µM in data set [6]; 28.4 µM in data set [7].
For the compound `Cc1nc2ccccc2n(CC(=O)N/N=C/c2ccc(OCCn3cc(CN4CCOCC4)nn3)cc2)c1=O`, the IC50 is 47.16 µg/mL (≈ 88.9 µM) in [8], 25 µg/mL (≈ 47.1 µM) in data set [9] and 49.01 µg/mL (≈ 92.4 µM) in data set [10].
A word on the EC50: it is the concentration needed to bring the measured effect to its halfway point. Low readings indicate an effect from little substance, high ones a need for much substance. On to `CCc1nc(C)c2c(O)nc3ccccc3n12`, for which the EC50 amounted to 0.8 µM in [11] and 1.7 µM in data set [13]. Besides, the results for the half-maximal inhibitory concentration (IC50) in [12] and in data set [14] were 2 µM and 0.4 µM, respectively. Further, in [15], the Activity is 0.2 µM.
On to `Cc1ccc(O)c(NC(=O)c2ccc(NC(=O)Cn3c(=O)c4nncn4c4ccccc43)cc2)c1`, for which the figures for the concentration for half-maximal inhibition (IC50) in data set [1], in data set [2] and in data set [3] were 8.1 µM, 0.0039 µM and 7.8 µM, respectively.
Regarding `Cc1nc2ccccc2n(CC(=O)N/N=C/c2ccc(OCCn3cc(CN4CCCC4)nn3)cc2)c1=O`, the 50% inhibitory concentration (IC50) in data set [8] was determined as 53.19 µg/mL (≈ 103 µM); in [9], 27.17 µg/mL (≈ 52.8 µM); in [10] it was 56.81 µg/mL (≈ 110 µM).
What is called MIC is the least concentration at which growth counts as inhibited. As for `N#Cc1ccc2c(c1)N(CCN1CCC(NCc3ccc4c(n3)NC(=O)CO4)CC1)C(=O)CO2`, the MIC in data set [16] came out at 0.25 µg/mL (≈ 0.541 µM); in [17], 2 µg/mL (≈ 4.32 µM); in data set [19], 0.13 µg/mL (≈ 0.281 µM); in data set [20] it was 0.5 µg/mL (≈ 1.08 µM). The compound further had an IC50 in data set [18] of 0.0032 µM.
On to `CCc1ncc2c(O)nc3cccnc3n12`, for which the concentration giving a half-maximal response (EC50) is 0.5 µM in [11] and 0.3 µM in data set [13]. For the same compound, the results for the IC50 in data set [12] and in data set [14] were 1 µM and 7 µM, respectively. Also, in data set [15], the Activity came to 0.1 µM.
By Ki is commonly meant the dissociation constant of the complex between target and ligand, obtained from inhibition or displacement. On to `O=C(O)c1nc2c(=O)[nH]c3cc(Cl)c(Cl)cc3n2n1`, for which the results for the inhibitory constant (Ki) in [21] and in data set [22] were 1.3 µM and 0.074 µM, respectively. The EC50 in data set [23] worked out at 0.3 µM.
For `C/C(=N\NC(=O)Cn1c(=O)c(C)nc2ccccc21)c1ccc(N)cc1`, the minimum inhibitory concentration (MIC) in data set [24] was found to be 16.1 µg/mL (≈ 46 µM); in [25], 1 µg/mL (≈ 2.86 µM); in data set [26], 125 µg/mL (≈ 358 µM); in [27], 125 µg/mL (≈ 358 µM); in [28] it was 16.1 µg/mL (≈ 46 µM); in data set [29] it was 25 µg/mL (≈ 71.6 µM). The compound further gave an MIC in data set [19] of 125 µg/mL (≈ 358 µM).
`Cc1nc2ccccc2n(CC(=O)N/N=C/c2ccc(OCCn3cc(CN4CCCCC4)nn3)cc2)c1=O`: the IC50 in [8] came to 52.08 µg/mL (≈ 98.5 µM); in data set [9], 28.24 µg/mL (≈ 53.4 µM); in data set [10], 54.34 µg/mL (≈ 103 µM).
As a reminder, the pKa is the negative logarithm of the acid dissociation constant. A low value points to a group that gives up its proton readily. Take `N#Cc1ccc2ccc(=O)n(CCN3CC[C@H](NCc4cc5c(cn4)OCCO5)[C@H](F)C3)c2c1`: the MIC in data set [16] is 4 µg/mL (≈ 8.63 µM); in data set [17], greater than 8 µg/mL; in [19] it was 0.06 µg/mL (≈ 0.129 µM); in [20], 0.13 µg/mL (≈ 0.28 µM). The half-maximal inhibitory concentration (IC50) in [18] stood at 0.048 µM. In [30], this compound gave a pKa of 4.47.
As to `CCc1nccn1-c1ncnc2c1nc(O)c1cnc(CC)n12`, the EC50 in data set [11] came out at 23 µM; in [13], 59 µM. Also, the figures for the IC50 in data set [12] and in data set [14] were greater than 100 µM and 14 µM, respectively. Also, the Activity in data set [15] is greater than 100 µM.
The inhibition is the relative decrease from the control value, in per cent. For the compound `O=C(Cn1c(=O)c(/C=C/c2ccncc2)nc2ccccc21)Nc1ccc(Cl)c(Cl)c1`, the IC50 was greater than 100 µM in [31]; greater than 100 µM in [32]; 47.6 µM in data set [1]; greater than 100 µM in [33]; greater than 100 µM in [34]; greater than 100 µM in [36]. This compound also returned an inhibition in data set [35] of 56%.
For `C=C(C)CCC(=O)/C=C1/Nc2ccccc2NC1=O`, the IC50 in [37] stood at 174 µM; in data set [34], 25.1 µM; in [38], 33.5 µM; in data set [39], 86.2 µM.
Consider `Cn1c(=O)c(C(CCCNC(=O)c2ccc(OC(F)(F)F)cc2)CC(F)(F)F)nc2ccccc21` (stereo not given), for which the “diameter of the inhibition zone (DIZ)” value in [40] was determined as 32 mm. The compound further gave an Activity in [41] of 49%.

The values are drawn from ChEMBL document CHEMBL5113380, “Functionalized quinoxalinones as privileged structures with broad-ranging pharmacological activities” (Eur J Med Chem, 2022).
